Assay results taken from patent US10307411B2, “Use of cotinine in treating or preventing neurogenesis deficits and enhancing neurogenesis” (Department of Veterans Affairs, priority 2014, dated 2019).

Assays:
[1] = Weight gain in rats subjected to CMF chemotherapy; type: in vivo, Wistar female rats
Experimental: Wistar female rats (2-4 months of age, 200-300 g) (n=10/group) were obtained from Harlan laboratories. Rats were housed in pairs, kept at 12 h light/12 h dark cycle and maintained in an air-conditioned room at a temperature of 21±1° C. and relative humidity of 60±10%. Food and water were available ad libitum. All rats were acclimated to the Veterinary Medical Unit for 1 week and handled daily. Weight was recorded every 2 days to assess for dehydration induced by the chemotherapy regime. All procedures were approved by the Institutional Animal Care and Use (IACUC) committee of the Bay Pines Veterans Affairs (VA) Healthcare System, in accordance with VA and The Guide for the Care and Use of Laboratory Animals. Following the habituation period, rats were divided into 4 groups (n=6-12/condition) and treated with warm saline (vehicle) or a combination of cyclophosphamide (40 mg/kg), methotrexate (37.5 mg/kg) and 5-fluorouracil (75 mg/kg) (CMF) via intraperitoneal (i.p. or IP) injection once a week for 2 weeks, the shortest time inducing cognitive impairment in the rats. […] Differences among the means were analyzed using one-way analysis of variance (ANOVA). […]

[2] = Porsolt's forced swim test, depressive-like behavior in rats subjected to CMF chemotherapy; type: in vivo, Wistar female rats; conditions: cotinine 5 mg/kg oral
Experimental: (§1) Wistar female rats (2-4 months of age, 200-300 g) (n=10/group) were obtained from Harlan laboratories. Rats were housed in pairs, kept at 12 h light/12 h dark cycle and maintained in an air-conditioned room at a temperature of 21±1° C. and relative humidity of 60±10%. Food and water were available ad libitum. All rats were acclimated to the Veterinary Medical Unit for 1 week and handled daily. Weight was recorded every 2 days to assess for dehydration induced by the chemotherapy regime. […]
This task was chosen to determine the effect of cotinine on depressive-like behavior is one of the more broadly used to assess potential antidepressant effects of drugs (Porsolt R D, Bertin A, Jalfre M (1977) Behavioral despair in mice: a primary screening test for antidepressants. Arch Int Pharmacodyn Ther 229(2):327-336; Castagne V, Moser P, Roux S, Porsolt R D (2010) Rodent models of depression: forced swim and tail suspension behavioral despair tests in rats and mice. Curr Protoc Neurosci 49:5.8.1-5.8.14). […] The freezing behavior, during 6-min trials, was recorded on video and scored by investigators blinded to the treatment arms. The immobility (freezing) time was recorded during a 6-min forced swim (FS) trial. […] The time in seconds (sec) spent by the mice immobile was scored by two investigators blind to the mice's treatments. […]

[3] = Novel location recognition test (NOL), spatial recognition memory in rats subjected to CMF chemotherapy; type: in vivo, Wistar female rats; conditions: CMF-treated rats, cotinine 5 mg/kg oral
Experimental: as §1, with “regime. All procedures were approved by the Institutional Animal Care and Use (IACUC) committee of the Bay Pines Veterans Affairs (VA) Healthcare System, in accordance with VA and The Guide for the Care and Use of Laboratory Animals.” for “regime.”
This task evaluates spatial recognition memory and is based on the preferential exploration of a displaced object by rodents able to detect a novel placement of an object after remembering each object's original positions (Ennaceur A, Delacour J (1988) A new one-trial test for neurobiological studies of memory in rats. 1: Behavioral data. Behav Brain Res 31(1):47-59). […] The discrimination index (DI), which is a measure of spatial recognition memory, was calculated as follows: time spent exploring the object in the new location/total time spent exploring both objects.
Differences among the means were analyzed using one-way analysis of variance (ANOVA). […]

Salmonella = conditions: 0-1000 μg/plate; cited from earlier work
Chinese hamster ovary = conditions: 0-1000 μg/ml; cited from earlier work

SMILES: CN1C(=O)CC[C@H]1c1cccnc1 [cotinine, (5S)-1-methyl-5-(3-pyridyl) pyrrolidin-2-one]
- recovery of weight gain after chemotherapy ([1]; CMF-treated rats, cotinine 5 mg/kg oral daily from 3 days after chemotherapy, vs chemotherapy-treated control rats p<0.05): enhanced the recovery of weight gain
- weight levels reached compared with vehicle-treated rats ([1]; cotinine 5 mg/kg oral daily, 30 days of experiments): indistinguishable from the vehicle-treated rats
- depressive-like behavior (immobility), chemotherapy-treated vs chemotherapy and cotinine-treated ([2]; CMF-treated rats, p<0.01): significant reduction
- depressive-like behavior (immobility), vehicle-treated vs cotinine-treated ([2]; rats without chemotherapy, p<0.001): significant reduction
- ability to discriminate between old and new location of objects (discrimination index) [3]: restored the ability
- location discrimination level compared with control rats ([3]; p>0.05): indistinguishable from control rats
- genotoxic effects, Salmonella mutagenicity (Salmonella): no genotoxic effects
- genotoxic effects, sister chromatid exchange (SCE) (Chinese hamster ovary): no genotoxic effects
